Measurements as given in publication PMC6611404 (Frontiers in Aging Neuroscience, 2019).
Like-named read-outs stand apart in the source and are kept apart here.

Legend:
[1] = target: T1, AChE from human erythrocytes (Homo sapiens, UniProt P22303); test: biochemical; conditions: for IC50: n = 2, read-out: (h)AChE IC50; for inhibition at 1 µM: read-out: (h)AChE % inhibition at 10^−6M
T1 construct: AChE from human erythrocytes; purchased Sigma Aldrich; host or cells: human erythrocytes (natural source)
T1 sequence (P22303 other isoform, or with tags, fused parts or gaps): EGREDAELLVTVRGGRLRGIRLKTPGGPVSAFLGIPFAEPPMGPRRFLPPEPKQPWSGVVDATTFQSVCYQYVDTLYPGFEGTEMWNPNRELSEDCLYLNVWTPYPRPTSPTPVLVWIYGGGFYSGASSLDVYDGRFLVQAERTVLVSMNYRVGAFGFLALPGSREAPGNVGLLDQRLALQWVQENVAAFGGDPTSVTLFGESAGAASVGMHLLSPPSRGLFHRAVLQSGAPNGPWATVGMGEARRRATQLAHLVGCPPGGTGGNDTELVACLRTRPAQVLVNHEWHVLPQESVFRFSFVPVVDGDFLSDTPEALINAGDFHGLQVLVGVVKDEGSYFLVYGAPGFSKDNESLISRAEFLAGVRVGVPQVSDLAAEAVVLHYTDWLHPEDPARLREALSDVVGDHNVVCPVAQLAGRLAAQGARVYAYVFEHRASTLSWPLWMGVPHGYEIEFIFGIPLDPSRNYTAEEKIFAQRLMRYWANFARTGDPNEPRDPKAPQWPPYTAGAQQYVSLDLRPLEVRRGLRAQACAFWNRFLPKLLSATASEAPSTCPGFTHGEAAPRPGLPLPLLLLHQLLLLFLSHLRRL
Procedure: Acetylthiocholine iodide and 5,5-dithiobis-(2-nitrobenzoic) acid (DTNB) were purchased from Sigma Aldrich. AChE from human erythrocytes (buffered aqueous solution, ≥500 units/mg protein (BCA), Sigma Aldrich) was diluted in 20 mM HEPES buffer pH 8, 0.1% Triton X-100 such as to have enzyme solution with 0.25 unit/mL enzyme activity. In the procedure, 100 μL of 0.3 mM DTNB dissolved in phosphate buffer pH 7.4 was added into the 96-well plate followed by 50 μL of test compound solution and 50 μL of enzyme (0.05 U final). After 5 min of preincubation at 25°C, the reaction was then initiated by the injection of 50 μL of 10 mM acetylthiocholine iodide solution. […] Assays were performed with a blank containing all components except acetylthiocholine, in order to account for non-enzymatic reaction. The reaction slopes were compared and the percent inhibition due to the presence of test compounds was calculated by the following expression: 100 − (vi/v0 × 100) where vi is the rate calculated in the presence of inhibitor and v0 is the enzyme activity.

[2] = target: T2, human 5-HT6 receptors (Homo sapiens, UniProt P50406); test: [3H]-LSD competition binding on membranes of HEK-293 cells expressing human 5-HT6 receptors; conditions: for Ki: (h)5-HT6R Ki, n = 3, Ki ± SD
T2 construct: purchased Perkin Elmer RBHS6M; host or cells: HEK-293 cells, transient expression (membranes)
T2 sequence (P50406 whole entry): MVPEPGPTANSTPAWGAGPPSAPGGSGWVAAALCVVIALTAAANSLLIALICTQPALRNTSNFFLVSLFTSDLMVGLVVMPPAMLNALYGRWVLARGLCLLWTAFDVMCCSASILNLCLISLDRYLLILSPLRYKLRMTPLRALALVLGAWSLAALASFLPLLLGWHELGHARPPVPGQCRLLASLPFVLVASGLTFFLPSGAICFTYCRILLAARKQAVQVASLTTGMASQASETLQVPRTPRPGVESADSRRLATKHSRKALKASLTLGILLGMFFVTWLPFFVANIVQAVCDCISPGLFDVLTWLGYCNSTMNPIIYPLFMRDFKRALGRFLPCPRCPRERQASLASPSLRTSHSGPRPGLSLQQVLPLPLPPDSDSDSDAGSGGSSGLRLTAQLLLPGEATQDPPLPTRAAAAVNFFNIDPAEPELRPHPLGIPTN
Procedure: Drugs were evaluated through their possibility to compete for the binding of [^3H]-LSD on membranes of HEK-293 cells transiently expressing the human 5-HT6 receptors (ref. RBHS6M, Perkin Elmer). […] At the end of the incubation, the homogenates were then filtered through Whatman GF/C filters and washed five times with ice-cold 25 mM Tris-HCl buffer. Non-specific binding was evaluated in the presence of 100 μM serotonin. Radioactivity associated to proteins was then quantified and expressed as the percentage of inhibition of the drugs under study.
(§1) For some of these compounds, affinity constants were calculated from five-point inhibition curves using the GraphPad Prism 6 software and expressed as Ki ± SD.

[3] = target: T3, Human 5-HT4R (Homo sapiens, UniProt Q13639); test: [3H]-GR113808 competition binding on 5-HT4(b) membrane preparations; conditions: 0.2 nM [3H]-GR113808
T3 construct: purchased Eurofins HTS110M
T3 sequence (Q13639 whole entry): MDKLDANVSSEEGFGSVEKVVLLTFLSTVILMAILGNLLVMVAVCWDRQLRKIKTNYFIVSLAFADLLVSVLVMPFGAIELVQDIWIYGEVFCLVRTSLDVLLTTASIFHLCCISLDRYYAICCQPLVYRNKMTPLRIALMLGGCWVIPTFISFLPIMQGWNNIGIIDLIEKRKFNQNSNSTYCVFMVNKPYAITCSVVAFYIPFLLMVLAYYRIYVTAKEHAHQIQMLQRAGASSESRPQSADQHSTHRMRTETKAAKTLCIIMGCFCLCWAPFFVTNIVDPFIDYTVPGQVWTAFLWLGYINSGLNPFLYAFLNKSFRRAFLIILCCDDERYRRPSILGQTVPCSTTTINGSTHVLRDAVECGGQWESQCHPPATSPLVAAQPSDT
Procedure: At the end of the incubation, homogenates were filtered through Whatman GF/C filters (Alpha Biotech) presoaked with 0.5% polyethylenimine using a Brandel cell harvester. Filters were subsequently washed three times with 1 mL of ice-cold 25 mM Tris buffer (pH 7.4, 4°C). Non-specific binding was evaluated in parallel in the presence of 30 μM serotonin.
as §1

[4] = read-out: (h)5-HT6R % inhibition at 10^−6M, 10^−6M, 2.5 nM [3H]-LSD
[5] = read-out: (h)5-HT6R % inhibition at 10^−8M, 10^−8M, 2.5 nM [3H]-LSD
[6] = read-out: (h)5-HT4R % inhibition at 10^−6M, 10^−6M
[7] = read-out: (h)5-HT4R % inhibition at 10^−8M, 10^−8M

SMILES: COc1cc(N)c(Cl)cc1C(=O)CCC1CCN(Cc2ccccc2Br)CC1 [5c, 1-(4-Amino-5-chloro-2-methoxyphenyl)-3-(1-(2-bromobenzyl)piperidin-4-yl)propan-1-one]
- IC50 [1]: 317 ± 115 nM
- inhibition at 1 µM [1]: 80%
- inhibition [2, 4]: 65%
- inhibition [2, 5]: 34%
- inhibition [3, 6]: 96%
- inhibition [3, 7]: 17%

SMILES: COc1cc(N)c(Cl)cc1C(=O)CCC1CCN(Cc2ccc(O)cc2)CC1 [5p, 1-(4-Amino-5-chloro-2-methoxyphenyl)-3-(1-(4-hydroxybenzyl)piperidin-4-yl)propan-1-one]
- IC50 [1]: 6 ± 0.4 nM
- inhibition at 1 µM [1]: 98%
- inhibition [2, 4]: 24%
- inhibition [2, 5]: 0%
- inhibition [3, 6]: 100%
- inhibition [3, 7]: 23%

SMILES: COc1cc(N)c(Cl)cc1C(=O)CCC1CCN(Cc2ccccc2I)CC1 [5e, 1-(4-Amino-5-chloro-2-methoxyphenyl)-3-(1-(2-iodobenzyl)piperidin-4-yl)propan-1-one]
- inhibitory effect towards AChE (in words) [1]: devoid of inhibitory effect towards AChE
- inhibition at 1 µM [1]: 37%
- affinity for 5-HT6R (in words) [2]: displayed affinity for 5-HT6R
- Ki [2]: 186 ± 71 nM
- inhibition [2, 4]: 81%
- inhibition [2, 5]: 25%
- inhibition [3, 6]: 96%
- inhibition [3, 7]: 1%

SMILES: COc1cc(N)c(Cl)cc1C(=O)CCC1CCN(Cc2ccccc2C)CC1 [5f, 1-(4-Amino-5-chloro-2-methoxyphenyl)-3-(1-(2-methylbenzyl)piperidin-4-yl)propan-1-one]
- IC50 [1]: 225 ± 57.3 nM
- inhibition at 1 µM [1]: 87%
- Ki [2]: 270 ± 14 nM
- inhibition at 0.0025 µM [2, 4]: > 70%
- inhibition [2, 5]: 24%
- inhibition [3, 6]: 98%
- inhibition [3, 7]: 9%

SMILES: COc1cc(N)c(Cl)cc1C(=O)CCC1CCN(Cc2cccc(Br)c2)CC1 [5i, 1-(4-Amino-5-chloro-2-methoxyphenyl)-3-(1-(3-bromobenzyl)piperidin-4-yl)propan-1-one]
- inhibitory effect towards AChE (in words) [1]: devoid of inhibitory effect towards AChE
- inhibition at 1 µM [1]: 44%
- affinity for 5-HT6R (in words) [2]: displayed affinity for 5-HT6R
- Ki [2]: 169 ± 44 nM
- inhibition [2, 4]: 77%
- inhibition [2, 5]: 7%
- inhibition [3, 6]: 94%
- inhibition [3, 7]: 5%

SMILES: COc1cc(N)c(Cl)cc1C(=O)CCC1CCN(Cc2ccccc2Cl)CC1 [5b, 1-(4-Amino-5-chloro-2-methoxyphenyl)-3-(1-(2-chlorobenzyl)piperidin-4-yl)propan-1-one]
- IC50 [1]: 156 ± 71 nM
- inhibition at 1 µM [1]: 91%
- Ki [2]: 110 ± 19 nM
- inhibition [2, 5]: 27%
- inhibition [3, 6]: 94%
- inhibition [3, 7]: 16%

SMILES: COc1cc(N)c(Cl)cc1C(=O)CCC1CCN(Cc2cc([N+](=O)[O-])ccc2F)CC1 [5s, 1-(4-Amino-5-chloro-2-methoxyphenyl)-3-(1-(2-fluoro-5-nitrobenzyl)piperidin-4-yl)propan-1-one]
- inhibition at 1 µM [1]: 63%
- inhibition [2, 4]: 18%
- inhibition [2, 5]: 5%
- inhibition [3, 6]: 62%
- inhibition [3, 7]: 4%

SMILES: COc1cc(N)c(Cl)cc1C(=O)CCC1CCN(Cc2ccc(F)cc2)CC1 [5o, 1-(4-Amino-5-chloro-2-methoxyphenyl)-3-(1-(4-fluorobenzyl)piperidin-4-yl)propan-1-one]
- IC50 [1]: 78.4 ± 12.1 nM
- inhibition at 1 µM [1]: 92%
- inhibition [2, 4]: 58%
- inhibition [2, 5]: 13%
- inhibition [3, 6]: 102%
- inhibition [3, 7]: 19%

SMILES: COc1cc(N)c(Cl)cc1C(=O)CCC1CCN(Cc2cccc([N+](=O)[O-])c2)CC1 [5n, 1-(4-Amino-5-chloro-2-methoxyphenyl)-3-(1-(3-nitrobenzyl)piperidin-4-yl)propan-1-one]
- inhibition at 1 µM [1]: 64%
- inhibition [2, 4]: 51%
- inhibition [2, 5]: 0%
- inhibition [3, 6]: 90%
- inhibition [3, 7]: 3%

SMILES: COc1cc(N)c(Cl)cc1C(=O)CCC1CCN(Cc2ccccc2OCc2ccccc2)CC1 [5g, 1-(4-Amino-5-chloro-2-methoxyphenyl)-3-(1-(2-benzyloxybenzyl)piperidin-4-yl)propan-1-one]
- inhibition at 1 µM [1]: 33%
- inhibition [2, 4]: 18%
- inhibition [2, 5]: 0%
- inhibition [3, 6]: 70%
- inhibition [3, 7]: 7%
